Molecular target: T1, αvβ6 (Homo sapiens, UniProt P06756+P18564)
T1 construct: endogenous in cells; host or cells: HT-29 cells
Assay: αvβ6 cell adhesion inhibition test (HT-29 cells on recombinant human LAP protein)
Format: cell-based
Details: recombinant human LAP coating, 200 μM MnCl2, 1 hour, read-out: IC50 (rate of inhibition of cell adhesion, αvβ6)
Experimental: Test Example 2 was performed by partially modifying the method of Henderson et al. (Nat Med., 19 (12), 1617-24, 2013). In Test Example 2, the same reagents as in Test Example 1 were used unless otherwise specified.
Recombinant human LAP protein (manufactured by R&D Systems, Inc., 246-LP-025) was prepared at […] with PBS, dispensed at 100 μL/well to a 96-well plate, and left standing overnight. The plate was washed with HBSS, then subjected to blocking treatment with DMEM containing 1% BSA, and used as a coated plate in the adhesion test.
HT-29 cells cultured in McCoy's 5A medium (manufactured by Thermo Fisher Scientific, Inc., 16600) containing 10% FBS and 1% penicillin/streptomycin/amphotericin B were recovered and suspended in DMEM containing 0.1% BSA and 200 μM MnCl2 to prepare a cell suspension. A test compound was added thereto.
The cell suspension of 5×10^5 cells/mL containing the test compound was added at 100 μL/well to the coated plate and left standing for 1 hour in a 5% CO2 incubator (37° C.). One hour later, the supernatant was removed, and the plate was washed with HBSS containing 200 μM MnCl2. The cells that adhered to each well in the plate were stained with crystal violet, and the cells were lysed, followed by absorbance measurement. Inhibition without substrate coating was defined as 100% inhibition, and inhibition when DMSO was added instead of the test compound was defined as 0% inhibition. The rate of inhibition of cell adhesion by the test compound was calculated according to the following expression.
Rate of inhibition of cell adhesion (%)=[1−{(Absorbance in the case of adding the test compound)−(Absorbance without substrate coating)}/{(Absorbance in the case of adding DMS)−(Absorbance without substrate coating)}]×100
An IC50 value was calculated from the rate of inhibition of cell adhesion by the test compound. A: IC50<3 nM, B: 3 nM≤IC50<10 nM, C: 10 nM≤IC50<30 nM, D: 30 nM≤IC50<100 nM, or E: IC50≥100 nM.

T1 sequence (P06756 31-889 limits assumed): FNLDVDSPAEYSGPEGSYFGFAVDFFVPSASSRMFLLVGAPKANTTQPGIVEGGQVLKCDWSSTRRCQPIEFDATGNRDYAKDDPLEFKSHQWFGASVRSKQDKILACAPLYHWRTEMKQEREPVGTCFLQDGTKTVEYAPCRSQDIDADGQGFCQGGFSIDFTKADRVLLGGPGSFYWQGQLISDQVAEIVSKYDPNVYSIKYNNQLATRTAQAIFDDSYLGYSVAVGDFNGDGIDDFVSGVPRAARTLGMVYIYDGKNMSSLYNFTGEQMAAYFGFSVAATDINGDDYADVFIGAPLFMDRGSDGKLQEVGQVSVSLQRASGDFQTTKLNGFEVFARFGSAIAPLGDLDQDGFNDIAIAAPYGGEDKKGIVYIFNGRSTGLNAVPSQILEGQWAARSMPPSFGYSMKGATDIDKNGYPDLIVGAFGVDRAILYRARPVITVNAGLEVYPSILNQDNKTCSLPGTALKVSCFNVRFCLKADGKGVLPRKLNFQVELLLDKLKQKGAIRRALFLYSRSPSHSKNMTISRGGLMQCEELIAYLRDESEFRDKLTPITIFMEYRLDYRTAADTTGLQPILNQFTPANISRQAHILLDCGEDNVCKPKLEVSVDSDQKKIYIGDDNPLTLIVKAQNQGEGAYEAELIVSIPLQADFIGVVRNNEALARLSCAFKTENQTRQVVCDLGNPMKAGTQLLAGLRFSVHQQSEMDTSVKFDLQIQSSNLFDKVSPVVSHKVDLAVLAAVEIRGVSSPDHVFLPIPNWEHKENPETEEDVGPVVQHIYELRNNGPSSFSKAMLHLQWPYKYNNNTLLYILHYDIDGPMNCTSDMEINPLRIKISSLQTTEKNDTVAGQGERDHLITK
T1 sequence (P06756 891-1048 limits assumed): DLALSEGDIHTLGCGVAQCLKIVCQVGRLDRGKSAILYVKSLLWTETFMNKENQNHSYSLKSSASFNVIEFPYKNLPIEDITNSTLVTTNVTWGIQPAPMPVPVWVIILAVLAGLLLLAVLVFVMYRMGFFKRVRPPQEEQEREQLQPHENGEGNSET
T1 sequence (P18564 22-788): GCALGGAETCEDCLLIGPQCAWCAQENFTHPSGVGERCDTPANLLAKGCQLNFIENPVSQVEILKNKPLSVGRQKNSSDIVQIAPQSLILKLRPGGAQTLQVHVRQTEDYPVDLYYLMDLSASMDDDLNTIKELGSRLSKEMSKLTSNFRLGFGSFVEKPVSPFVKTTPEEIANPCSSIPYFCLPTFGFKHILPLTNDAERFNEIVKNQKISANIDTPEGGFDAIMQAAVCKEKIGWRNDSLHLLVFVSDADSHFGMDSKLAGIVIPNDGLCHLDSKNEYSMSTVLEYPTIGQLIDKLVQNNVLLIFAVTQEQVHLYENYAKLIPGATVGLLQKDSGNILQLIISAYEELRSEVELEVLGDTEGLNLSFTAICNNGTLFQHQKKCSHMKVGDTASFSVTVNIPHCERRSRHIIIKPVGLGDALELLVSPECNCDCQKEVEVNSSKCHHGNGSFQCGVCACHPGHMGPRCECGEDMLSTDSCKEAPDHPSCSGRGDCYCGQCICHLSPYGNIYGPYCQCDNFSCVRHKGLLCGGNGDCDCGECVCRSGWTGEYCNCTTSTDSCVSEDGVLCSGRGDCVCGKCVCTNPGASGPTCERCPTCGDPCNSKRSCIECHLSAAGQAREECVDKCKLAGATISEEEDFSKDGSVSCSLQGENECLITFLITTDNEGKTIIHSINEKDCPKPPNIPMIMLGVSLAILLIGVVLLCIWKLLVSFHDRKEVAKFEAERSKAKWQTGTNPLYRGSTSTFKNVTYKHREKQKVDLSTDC

Row | Compound | IC50 [nM]
1 | O=C(O)C[C@H](NC(=O)CNC(=O)c1cc(NC2=NCC(F)CN2)c2cn[nH]c2c1)c1cc(Cl)cc(C(F)(F)F)c1 (stereo partly drawn) [Example 1-(b), (3S)-3-(3-chloro-5-(trifluoromethyl)phenyl)-3-(2-(4-((5-fluoro-1,4,5,6-tetrahydropyrimidin-2-yl)amino)-1H-indazole-6-carboxamido)acetamido)propanoic acid] | < 3
2 | O=C(O)C[C@H](NC(=O)CNC(=O)c1cc(NC2=NCC(F)CN2)c2cn[nH]c2c1)c1cc(Br)cc(C(F)(F)F)c1 (stereo partly drawn) [Example 2-(b), (3S)-3-(3-bromo-5-(trifluoromethyl)phenyl)-3-(2-(4-((5-fluoro-1,4,5,6-tetrahydropyrimidin-2-yl)amino)-1H-indazole-6-carboxamido)acetamido)propanoic acid] | < 3
3 | O=C(O)C[C@H](NC(=O)CNC(=O)c1cc(NC2=NCC(F)CN2)c2cn[nH]c2c1)c1cc(I)cc(C(F)(F)F)c1 (stereo partly drawn) [Example 3-(b), (3S)-3-(2-(4-((5-fluoro-1,4,5,6-tetrahydropyrimidin-2-yl)amino)-1H-indazole-6-carboxamido)acetamido)-3-(3-iodo-5-(trifluoromethyl)phenyl)propanoic acid] | < 3
4 | Cc1cc([C@H](CC(=O)O)NC(=O)CNC(=O)c2cc(NC3=NCC(F)CN3)c3cn[nH]c3c2)cc(C(F)(F)F)c1 (stereo partly drawn) [Example 4-(b), (3S)-3-(2-(4-((5-fluoro-1,4,5,6-tetrahydropyrimidin-2-yl)amino)-1H-indazole-6-carboxamido)acetamido)-3-(3-methyl-5-(trifluoromethyl)phenyl)propanoic acid] | < 3
5 | COc1cc([C@H](CC(=O)O)NC(=O)CNC(=O)c2cc(NC3=NCC(F)CN3)c3cn[nH]c3c2)cc(C(F)(F)F)c1 (stereo partly drawn) [Example 5-(b), (3S)-3-(2-(4-((5-fluoro-1,4,5,6-tetrahydropyrimidin-2-yl)amino)-1H-indazole-6-carboxamido)acetamido)-3-(3-methoxy-5-(trifluoromethyl)phenyl)propanoic acid] | < 3
6 | O=C(O)C[C@H](NC(=O)CNC(=O)c1cc(NC2=NCC(F)CN2)c2cn[nH]c2c1)c1cc(F)cc(C(F)(F)F)c1 (stereo partly drawn) [Example 6-(b), (3S)-3-(2-(4-((5-fluoro-1,4,5,6-tetrahydropyrimidin-2-yl)amino)-1H-indazole-6-carboxamido)acetamido)-3-(3-fluoro-5-(trifluoromethyl)phenyl)propanoic acid] | 3 to 10
7 | O=C(O)C[C@H](NC(=O)CNC(=O)c1cc(NC2=NCC(F)CN2)c2cn[nH]c2c1)c1cc(C(F)(F)F)cc(C(F)(F)F)c1 (stereo partly drawn) [Example 7-(b), (3S)-3-(3,5-bis(trifluoromethyl)phenyl)-3-(2-(4-((5-fluoro-1,4,5,6-tetrahydropyrimidin-2-yl)amino)-1H-indazole-6-carboxamido)acetamido)propanoic acid] | < 3
8 | O=C(O)C[C@H](NC(=O)CNC(=O)c1cc(NC2=NCC(F)CN2)c2cn[nH]c2c1)c1cc(-n2cccn2)cc(C(F)(F)F)c1 (stereo partly drawn) [Example 8-(b), (3S)-3-(3-(1H-pyrazol-1-yl)-5-(trifluoromethyl)phenyl)-3-(2-(4-((5-fluoro-1,4,5,6-tetrahydropyrimidin-2-yl)amino)-1H-indazole-6-carboxamido)acetamido)propanoic acid] | < 3
9 | O=C(O)C[C@H](NC(=O)CNC(=O)c1cc(NC2=NCC(F)CN2)c2cn[nH]c2c1)c1cccc(C(F)(F)F)c1F (stereo partly drawn) [Example 9-(b), (3S)-3-(2-(4-((5-fluoro-1,4,5,6-tetrahydropyrimidin-2-yl)amino)-1H-indazole-6-carboxamido)acetamido)-3-(2-fluoro-3-(trifluoromethyl)phenyl)propanoic acid] | < 3
10 | O=C(O)C[C@H](NC(=O)CNC(=O)c1cc(NC2=NCC(F)CN2)c2cn[nH]c2c1)c1cccc(C(F)(F)F)c1Cl (stereo partly drawn) [Example 10-(b), (3S)-3-(2-chloro-3-(trifluoromethyl)phenyl)-3-(2-(4-((5-fluoro-1,4,5,6-tetrahydropyrimidin-2-yl)amino)-1H-indazole-6-carboxamido)acetamido)propanoic acid] | ≥ 100
11 | O=C(O)C[C@H](NC(=O)CNC(=O)c1cc(NC2=NCC(F)CN2)c2cn[nH]c2c1)c1cc(C(F)(F)F)ccc1F (stereo partly drawn) [Example 11-(b), (3S)-3-(2-(4-((5-fluoro-1,4,5,6-tetrahydropyrimidin-2-yl)amino)-1H-indazole-6-carboxamido)acetamido)-3-(2-fluoro-5-(trifluoromethyl)phenyl)propanoic acid] | < 3
12 | O=C(O)C[C@H](NC(=O)CNC(=O)c1cc(NC2=NCC(F)CN2)c2cn[nH]c2c1)c1cc(C(F)(F)F)ccc1Cl (stereo partly drawn) [Example 12-(b), (3S)-3-(2-chloro-5-(trifluoromethyl)phenyl)-3-(2-(4-((5-fluoro-1,4,5,6-tetrahydropyrimidin-2-yl)amino)-1H-indazole-6-carboxamido)acetamido)propanoic acid] | 3 to 10
13 | O=C(O)C[C@H](NC(=O)CNC(=O)c1cc(NC2=NCC(F)CN2)c2cn[nH]c2c1)c1ccc(F)c(C(F)(F)F)c1 (stereo partly drawn) [Example 13-(b), (3S)-3-(2-(4-((5-fluoro-1,4,5,6-tetrahydropyrimidin-2-yl)amino)-1H-indazole-6-carboxamido)acetamido)-3-(4-fluoro-3-(trifluoromethyl)phenyl)propanoic acid] | < 3
14 | Cc1ccc([C@H](CC(=O)O)NC(=O)CNC(=O)c2cc(NC3=NCC(F)CN3)c3cn[nH]c3c2)cc1C(F)(F)F (stereo partly drawn) [Example 14-(b), (3S)-3-(2-(4-((5-fluoro-1,4,5,6-tetrahydropyrimidin-2-yl)amino)-1H-indazole-6-carboxamido)acetamido)-3-(4-methyl-3-(trifluoromethyl)phenyl)propanoic acid] | < 3
15 | O=C(O)C[C@H](NC(=O)CNC(=O)c1cc(NC2=NCC(F)CN2)c2cn[nH]c2c1)c1cc(Cl)c(F)c(C(F)(F)F)c1 (stereo partly drawn) [Example 15-(b), (3S)-3-(3-chloro-4-fluoro-5-(trifluoromethyl)phenyl)-3-(2-(4-((5-fluoro-1,4,5,6-tetrahydropyrimidin-2-yl)amino)-1H-indazole-6-carboxamido)acetamido)propanoic acid] | < 3
16 | COc1ccc([C@H](CC(=O)O)NC(=O)CNC(=O)c2cc(NC3=NCC(F)CN3)c3cn[nH]c3c2)cc1Br (stereo partly drawn) [Example 16-(b), (3S)-3-(3-bromo-4-methoxyphenyl)-3-(2-(4-((5-fluoro-1,4,5,6-tetrahydropyrimidin-2-yl)amino)-1H-indazole-6-carboxamido)acetamido)propanoic acid] | < 3
17 | O=C(O)C[C@H](NC(=O)CNC(=O)c1cc(NC2=NCC(F)CN2)c2cn[nH]c2c1)c1cc(Cl)cc(Cl)c1 (stereo partly drawn) [Example 17-(b), (3S)-3-(3,5-dichlorophenyl)-3-(2-(4-((5-fluoro-1,4,5,6-tetrahydropyrimidin-2-yl)amino)-1H-indazole-6-carboxamido)acetamido)propanoic acid] | 3 to 10
18 | O=C(O)C[C@H](NC(=O)CNC(=O)c1cc(NC2=NCC(F)CN2)c2cn[nH]c2c1)c1cc(Cl)cc(Br)c1 (stereo partly drawn) [Example 18-(b), (3S)-3-(3-bromo-5-chlorophenyl)-3-(2-(4-((5-fluoro-1,4,5,6-tetrahydropyrimidin-2-yl)amino)-1H-indazole-6-carboxamido)acetamido)propanoic acid] | < 3
19 | O=C(O)C[C@H](NC(=O)CNC(=O)c1cc(NC2=NCC(F)CN2)c2cn[nH]c2c1)c1cc(Br)cc(Br)c1 (stereo partly drawn) [Example 19-(b), (3S)-3-(3,5-dibromophenyl)-3-(2-(4-((5-fluoro-1,4,5,6-tetrahydropyrimidin-2-yl)amino)-1H-indazole-6-carboxamido)acetamido)propanoic acid] | < 3
20 | O=C(O)C[C@H](NC(=O)CNC(=O)c1cc(NC2=NCC(F)CN2)c2cn[nH]c2c1)c1cc(Br)cc(I)c1 (stereo partly drawn) [Example 20-(b), (3S)-3-(3-bromo-5-iodophenyl)-3-(2-(4-((5-fluoro-1,4,5,6-tetrahydropyrimidin-2-yl)amino)-1H-indazole-6-carboxamido)acetamido)propanoic acid] | < 3
21 | O=C(O)C[C@H](NC(=O)CNC(=O)c1cc(NC2=NCC(F)CN2)c2cn[nH]c2c1)c1cc(Cl)cc(I)c1 (stereo partly drawn) [Example 21-(b), (3S)-3-(3-chloro-5-iodophenyl)-3-(2-(4-((5-fluoro-1,4,5,6-tetrahydropyrimidin-2-yl)amino)-1H-indazole-6-carboxamido)acetamido)propanoic acid] | < 3
22 | O=C(O)C[C@H](NC(=O)CNC(=O)c1cc(NC2=NCC(F)CN2)c2cn[nH]c2c1)c1cc(Cl)ccc1F (stereo partly drawn) [Example 22-(b), (3S)-3-(5-chloro-2-fluorophenyl)-3-(2-(4-((5-fluoro-1,4,5,6-tetrahydropyrimidin-2-yl)amino)-1H-indazole-6-carboxamido)acetamido)propanoic acid] | 3 to 10
